# Patent US8748485B2, “Compound and medical use thereof” (Ono Pharmaceuticals Co., Ltd., priority 2010, dated 2014)
# Columns and labels:
# p53R2 = test: Mutagenicity assay using mammalian cells (NESMAGET method); assay type: cell-based
# Procedure: In the treatment of Parkinson's disease and/or Parkinson's syndrome, there is a possibility that a levodopa prodrug is continued to be taken over a long period of time of several years to several decades. Therefore, an evaluation was carried out as to whether or not the compound of the present invention has mutagenicity by a mutagenicity assay using mammalian cells.
# A mutagenicity assay using mammalian cells was carried out as a commissioning test to be undertaken by Nissin Foods Holdings Co., Ltd. The present method also called NESMAGET method is a method in which the expression of p53R2 which is a DNA repair gene is detected by luciferase activity, and the specific experimental technique is described in JP-A-2005-000024 and Japanese Patent No. 4243716. In the determination as to whether or not the result of this test was positive, the luciferase activity of p53R2 in the case of a vehicle control (0.3% dimethylsulfoxide) was taken as 100%, and a concentration at which a relative luciferase activity exceeded 200% was determined to be “concentration at which mutagenicity was determined to be positive”.
# [1] = Kinetic study in dogs (oral administration, plasma levodopa); conditions: dog, in vivo, po, 3 mg/kg
# From the text: The relationship between the blood concentration of levodopa and side effects in patients who take levodopa has been gradually elucidated. […] In order to reduce the number of doses of levodopa and avoid side effects such as dyskinesia and wearing-off in patients who take levodopa, it is necessary to maintain the blood concentration of levodopa within a therapeutic range as long as possible.
# These levodopa prodrugs are prodrugs containing an ester bond, and therefore, it is considered that among a number of enzymes, carboxyesterase plays the most important role in the process of producing levodopa by metabolizing the compound after the compound is administered in vivo. Therefore, as an animal species to be used for performing a kinetic study, dogs in which the organ distribution of carboxyesterase is most similar to that of humans were selected as subjects for evaluation.
# The thus obtained drug solution was administered by gavage through a gastric tube into the stomach of dogs (male beagle dogs) which were fasted from the day before the administration. At 15 and 30 minutes, and 1, 2, 4, 6, and 8 hours after administration of the drug solution, 1 mL of blood was collected from a cephalic vein with a heparinized syringe. Immediately after the collection, the collected blood was centrifuged in a desktop centrifuge at 14500 rpm for 45 seconds. Then, acetonitrile containing 0.1125% formic acid was added to the thus obtained plasma in an amount as twice as large as the volume of the plasma, followed by stirring, and then, the resulting sample was stored at −20° C. until measurement.
# The sample was thawed on the measurement day, followed by stirring and centrifugation at 13000 rpm for 3 minutes (at 4° C.). The resulting supernatant was filtered and the filtrate was analyzed by LC/MS/MS. The analysis was performed by LC/MS/MS under the following conditions.
# Measurement Apparatus: API-5000 (manufactured by Applied Biosystems, Inc.)
# Analytical column: CAPCELL PAK CR (1:4) (4.6 mm, I.D.×250 mm, 5 μm)
# Analytical column temperature: 40° C.
# Mobile phase: A: 5 mM ammonium formate (pH 3.9), B: acetonitrile (A/B=17/3)
# Detection (levodopa): m/z (precursor): 196.19, m/z (product): 134.99
# DP (Declustering Potential): −60
# CE (Collision Energy): −25
# CXP (Collision Cell Exit Potential): −17
# Incidentally, the numerical value in the column which indicates the dose expressed in terms of levodopa refers to a dose equivalent to that of levodopa.
# [2] = Simulation of kinetics in human blood on basis of results of kinetic study in dogs; conditions: simulated in humans versus SINEMET 100 mg tablet
# Procedure: (4) Simulation of Kinetics in Human Blood on Basis of Results of Kinetic Study in Dogs
# For the purpose of validating whether or not the effect of releasing levodopa over a long period of time of the compound of the present invention observed in the kinetic study in dogs is also observed in humans, a simulation of kinetics in human blood was carried out on the basis of the results of the kinetic study in dogs described in the above section (3).
# By using the values obtained in the kinetic study in dog blood in the above section (3), a prediction model that simulates the kinetics in human blood was constructed.
# Specifically, the blood concentration-time profile of levodopa or the compound of the present invention obtained in the kinetic study in dogs was input into Phoenix WinNonlin version 6.1 (Pharsight Corporation), which is kinetic analysis software, and the fitting of the plasma concentration of levodopa was carried out, whereby a prediction model that simulates the blood kinetics of levodopa was constructed.
# Into this prediction model, the values of blood kinetics when a levodopa preparation was administered to humans described in the literature (Br. J. Clin. Pharm., 1989, Vol. 28, pp. 61-69, D. R. C. Robertson et al.) were input, and the kinetics of the compound of the present invention in human blood was simulated. […]
# [3] = Kinetic study in dogs (combination use with dopa decarboxylase inhibitor carbidopa); assay type: in vivo, dogs (male beagle dogs); conditions: dogs given carbidopa 60 mg/kg; oral Example 5 18.6 mg/kg (6 mg/kg expressed in terms of levodopa)
# Procedure: (3) Kinetic Study in Dogs (Combination Use with Dopa Decarboxylase Inhibitor (DCI)) […] As the DCI, carbidopa was used. […] The preparation of an analytical sample and analysis were carried out according to the method described in the same section in the Biological Example 1(1).
# [4] = tested on: rat model injected with 6-hydroxydopamine into the medial forebrain bundle; test: Rotation test in model injected with 6-hydroxydopamine into medial forebrain bundle; assay type: in vivo, rats (male Crl:CD(SD)IGS); conditions: 6-OHDA rats
# From the text: In the experiment, male Crl:CD(SD)IGS rats (Charles River Japan, Inc.) supplied at 5 weeks of age were used. The rats were housed in Econ cages (4 or less rats per cage) and were raised by giving free access to solid feed CRF-1 (Oriental Yeast Co., Ltd.) and tap water (in a water bottle) until they were subjected to the experiment. When acclimation after shipping was completed, each of the Crl:CD(SD)IGS rats at 6 weeks of age was anesthetized with pentobarbital sodium (Somnopentyl (registered trademark) injectable solution, 35 mg/kg, intraperitoneal injection). Subsequently, for the purpose of preventing damage to norepinephrine neurons by 6-hydroxydopamine (6-OHDA), desipramine (25 mg/kg) was intraperitoneally injected, and the rat was held and fixed by a brain fixation device. A small bone window was opened with a hand drill at a desired site, and 6-OHDA was injected into the medial forebrain bundle according to the brain atlas of Paxinos and Watson using a 30 G cannula (Brain Science Idea. Co. Ltd.) with a needle tip cut at an angle of 45° (site of injection: A=−4.5 mm, L=+1.2 mm, and V=−7.8 mm with respect to the bregma, injection amount: 8 μg/4 μL/8 min/site in each case). […] Thereafter, the burr hole was closed with an instant glue, and then sutured and disinfected with iodine tincture. […] In a rotation test, a device configured such that a black plastic circular cylinder having a diameter of 30 cm and a height of 35 cm was placed upright in a black-painted bowl having an opening diameter of 35 cm and a bottom diameter of 17 cm was used (the height of the curve from the bottom of the bowl to the bottom edge of the cylinder was set to 7 cm). The rat was placed in the device (one rat per device) and acclimated to the device for 30 minutes. Thereafter, a test substance was administered to the rat, and the rat was returned to the same device and videotaped. […] As for the number of rotations, a 360° rotation in one direction was determined to be one rotation. In the case where the direction (body's direction of movement or movement direction) was changed during rotation, the rotation was not included in the count. […] Incidentally, in each case, benserazide which is a dopa decarboxylase inhibitor (8 mg/kg) was orally administered concomitantly. […] In addition, the respective values are each a mean of the values obtained using 11 rats in each group and its standard error.
compound,measurement,setting,value
"CC(C)(OC(=O)c1ccccc1)C(=O)Oc1ccc(C[C@H](N)C(=O)O)cc1OC(=O)C(C)(C)OC(=O)c1ccccc1.Cl [Example 5, (2S)-2-Amino-3-(3,4-bis((2-(benzoyloxy)-2-methylpropanoyl)oxy)phenyl)propanoic acid hydrochloride]",Mutagenicity assay (NESMAGET) Concentration at which mutagenicity was determined to be positive,p53R2; concentration at which relative luciferase activity of p53R2 exceeded 200% (vehicle control 0.3% dimethylsulfoxide = 100%),>200 µg/mL
same,determination of mutagenicity,"p53R2; positive = relative luciferase activity of p53R2 exceeded 200%, compound of the present invention up to 200 μg/mL",mutagenicity was not observed
same,AUC (area under the blood concentration-time curve of levodopa),[1],0.89 μg^+ hr/mL
same,"Cmax/C6 hr (ratio of maximum plasma concentration and plasma concentration at 6 hours after oral administration, levodopa)","[1]; male, beagle",8.0
same,time in the therapeutic range in humans relative to the currently available levodopa preparation,[2],about 3.4 times
same,time after administration at which plasma levodopa reached Cmax,[3],4 h
same,lapse from administration after which the number of rotations began to increase,"[4]; oral Example 5 100 mg/kg expressed in terms of levodopa, benserazide 8 mg/kg",≥ 60 min
same,time after administration at which the number of rotations reached a maximum value,"[4]; oral, levodopa 30 mg/kg or Example 5 100 mg/kg expressed in terms of levodopa, benserazide 8 mg/kg",140 min
same,maximum value of the number of rotations per 10 minutes,"[4]; oral, levodopa 30 mg/kg or Example 5 100 mg/kg expressed in terms of levodopa, benserazide 8 mg/kg concomitantly, N=11",≥ 90 times
